Test results as given in patent publication US6680307B1, “Use of ibandronate for promoting osseointegration of endoprostheses” (Roche Diagnostics GmbH, priority 1998, dated 2004).

Columns and labels:
[1] = test system: bone-tooth implant; settings: treatment for 4 weeks (1 week before the operation and 3 weeks after); cited from earlier work
[2] = test system: periprosthetic bone loss; settings: treatment with higher doses; cited from earlier work
[3] = test system: titanium implants and hydroxyl apatite-coated implants in the bone of 6-month old rats; test: Osseointegration of implants in rat femur at a defined time, daily versus bolus administration (Example 2); format: in vivo
Protocol: (§1) 6-month old female Spregue-Dawley rats were kept in cages and subjected to a 12-hour day and night rhythm. They had free access to food and water. The animals were kept and fed in accordance with legal regulations and the research was carried out with the approval and under the supervision of the Darmstadt Governmental Presidium.
(§2) The animals were divided at random among the various test groups. They were anaethesized by intraperitoneal administration of ketamine (75 mg/kg) and xylazine (5 mg/kg). Both back legs were sharped and disinfected with Betaisadonna solution. Medioparapatellar arthrotomy of the knee joint was carried out under aseptic conditions and the patella was laterally dislocated. The medullary canal was opened distally in the intercondylar notch and the canal was drilled with a 1.0 mm diameter Kirchner wire down to the proximal metaphysis of the femur. A titanium Kirchner wire was then inserted into the right femur and a hydroxyl apatite-coated Kirchner wire into the left femur as far as the proximal metaphysis. The access hole was closed with bone wax, the patella was replaced, the extensor apparatus of the refined leg was reconstructed, the soft tissue was adapted and the skin was closed by an intracutaneous seam. The back legs were then tested for normal post-operative movement. The animals were at liberty to move freely in their cages and the activity and the load on the hind legs was checked daily.
(§3) Ibandronate or 0.9% NaCl was administered daily as per Examples 1 and 2. After the preset treatment time the animals were euthanased in a carbon dioxide chamber and directly afterwards the two femurs were taken out, completely freed from soft tissue and fixed in alcohol for subsequent histerlogical treatment. […] Particular attention was given to the areas where a change in the bone occurred such as an increase or decrease in trabecular bone, a change in bone density, loosening seams on the implant, periostal or endostal changes. Evaluation in this case was purely descriptive.
(§4) Description of production of preparations by the cut microsection technique for producing histological sections of conventional non-cuttable tissue after Prof. Donath. (K. Donath, G. Breuner: A method for the study of undecalcified bones and teeth with attached soft tissue. The Saege-Schliff (sawing and grinding) technique., J. Oral Pathology 1982, 11:318-26). […]
(§5) Histological investigation of bones under the optical microscope gives knowledge about the overall structure and the distribution of bone components. […] Quantitative evaluation of the results was by histomorphometry.
(§6) The bone-covered area on the metal implant was shown and calculated by histomorphometry, using special software. […]

[4] = test system: titanium implants and hydroxyl apatite-coated implants in the bone of 6 month-old Sprague Dawley rats; test: Time sequence of osseointegration of implants in rat femur (Example 1, histomorphometry); format: in vivo
Protocol: as §1, §2, §3, §4, §5, §6

SMILES: O=P(O)(O)C(Cl)(Cl)P(=O)(O)O [Clodronate]
- Osteogenesis (bone formation) compared with untreated patients [1]: more intensive

SMILES: NCCCC(O)(P(=O)(O)O)P(=O)(O)O [alendronate]
- Bone resorption [2]: considerably slowed down

SMILES: CCCCCN(C)CCC(O)(P(=O)(O)O)P(=O)(O)O [ibandronate, 1-hydroxy-3-(N-methyl-N-pentyl)aminopropyl-1,1-diphosphonic acid]
- Increase in osseointegration compared with the control group ([3]; 2a: s.c. 25 μg FAE/kg/d for 15-20 days): 50%
- Increase in osseointegration compared with the control group ([3]; 2b: s.c. bolus administration, 25 μg FAE/kg/d): 50%
- Difference in osseointegration between bolus-treated groups and control group ([3]; 2b: s.c. bolus administration, total dose of 1, 5 and 25 μg FAE/kg/d): Very significant differences
- Difference in osseointegration between bolus administration and cumulative administration ([3]; 2c: bolus versus cumulative administration over the entire period): No significant differences
- Temporal advantage after treatment versus untreated group ([4]; 25 μg FAE/kg/d daily s.c.): more than 50%
- Time to complete integration of the implant ([4]; 25 μg FAE/kg/d daily s.c., untreated group nearly complete ingrowth after 37 days): 18 days
- Time to complete integration ([4]; daily dose of 20 to 30 μg/kg body weight (i.v. equivalent)): 15 to 20 days
- Osseointegration compared with the untreated group ([4]; daily subcutaneous ibandronate after implantation, rats): appreciably improved
